These results are taken from US20230069586A1, “METHODS OF USING ANDROGRAPHOLIDE, ORIDONIN AND ISOLIQUIRITIGENIN AND DERIVATIVES THEREOF” (THE REGENTS OF THE UNIVERSITY OF CALIFORNIA, priority 2020, published 2023).

Assay [1] deals with human β-defensin 3 (hBD3) peptide. Description: hBD3 peptide expression in hTCEpi cells, ELISA of supernatant. Type of assay: cell-based. Conditions: increasing concentrations, 48 hours. As to the method:
hTCEpi cells were seeded into a 6-well plate coated with FNC material and allowed to grow to 80% confluence. The cells were subsequently treated with increasing concentrations of andrographolide (10, 25, 50, 75, 100 μM), oridonin (1, 2, 5, 10, 15 μM), isoliquiritigenin (5, 10, 15, 25, 50 μM) for 48 hours, and a negative control (vehicle: DMSO or EtOH). After treatment, the supernatant was collected and 100 μl was used to quantify hBD3 peptide concentration (Defensin 3, beta (human) ELISA Kit, Phoenix Pharmaceuticals Inc) and performed in duplicate for each treatment. An hBD3 peptide standard curve was generated from the ELISA kit reagents. The concentration of each experimental well was determined from the linear regression equation generated from the absorbance values of the hBD3 standards. […] It is important to note that the majority of the AMP research fails to detect peptide concentrations from both in vitro and in vivo experiments despite observing upregulation at the mRNA level and the ability to augment antimicrobial activity of cells in either context.
On the technique in general: An ELISA detects its analyte on a solid surface through an enzyme-linked reagent.

Assay [2] has as its system DEFB103 (Human β-defensin 3) mRNA expression. In words: DEFB103 (human β-defensin 3) mRNA expression in hTCEpi cells, quantitative PCR. Particulars: hTCEpi corneal epithelial cells, treated individually, 24 hours. Type of assay: cell-based. As to the method:
Telomerase immortalized human corneal epithelial cells (hTCEpi cells, passage 40-50) were grown in 6-well plates to 80-90% confluence. Cells were treated with andrographolide, oridonin, isoliquiritigenin (Selleck Chem) individually for 24 hours, at concentrations previously determined to have no effect on cellular viability based on cell morphology, MTT assay and RNA yield. Vehicle control type was based on manufacturers' diluent recommendation and concentration was equivalent to the diluent concentration in the highest treatment (andrographolide and oridonin: DMSO, isoliquiritigenin: ethanol). After 24 hours, media was aspirated from each well and washed with sterile PBS. Total RNA was extracted (GeneJet) and quantified (NanoDrop). Approximately 50 ng of total RNA from each sample was reverse transcribed and quantitative PCR was performed using […] for DEFB103 (ThermoFisher), and GAPDH specific aptamers were used as a control. Expression of DEFB103 was calculated using the 2^-ddCt method. A one-way ANOVA was performed to determine statistical significance with a post-hoc test to determine individual differences.
Separate time course experiments were performed as described above, where data points were taken at 2, 6, 12, and 24 hours.

As for `C=C1CC[C@@H]2[C@](C)(CO)[C@H](O)CC[C@@]2(C)[C@@H]1C/C=C1/C(=O)OC[C@H]1O` [andrographolide], the hBD3 peptide expression entry in assay [1] was “markedly upregulated in a dose-dependent manner”. Also, in assay [2], the “increase of human β-defensin 3 mRNA expression over vehicle control alone” value amounted to 360 fold.
The like results for oridonin were, in that order, “below the limit of detection” and 4 fold.
The like results for `O=C(/C=C/c1ccc(O)cc1)c1ccc(O)cc1O` [isoliquiritigenin] were, in that order, “below the limit of detection” and 9-10 fold.
